# Target: T1, PRMT5/MEP50 (Homo sapiens, UniProt O14744)
# T1 construct: Flag-PRMT5; 6His-MEP50
# Experiment: PRMT5 Biochemical Assay (PRMT5/MEP50 enzyme assay on peptide substrate, 3H-SAM Flashplate)
# Description: General Materials. S-adenosylmethionine (SAM), S-adenosylhomocysteine (SAH), bicine, KCl, Tween20, dimethylsulfoxide (DMSO), bovine skin gelatin (BSG), and Tris(2-carboxyethyl)phosphine hydrochloride solution (TCEP) were purchased from Sigma-Aldrich at the highest level of purity possible. ^3H-SAM was purchase from American Radiolabeled Chemicals with a specific activity of 80 Ci/mmol. 384-well streptavidin Flashplates were purchased from PerkinElmer.
# Substrates. Peptide representative of human histone H4 residues 1-15 was synthesized with a C-terminal linker-affinity tag motif and a C-terminal amide cap by 21st Century Biochemicals. The peptide was high high-perfomance liquid chromatography (HPLC) purified to greater than 95% purity and confirmed by liquid chromatography mass spectrometry (LC-MS). The sequence was Ac-[…][K-Biot]-amide (SEQ ID NO.:3).
# Molecular Biology: Full-length human PRMT5 (NM_006109.3) transcript variant 1 clone was amplified from a fetal brain cDNA library, incorporating flanking 5′ sequence encoding a FLAG tag ([…]) (SEQ ID NO.:4) fused directly to Ala 2 of PRMT5. Full-length human MEP50 (NM_024102) clone was amplified from a human testis cDNA library incorporating a 5′ sequence encoding a 6-histidine tag (MHHHHHH) (SEQ ID NO.:5) fused directly to Arg 2 of MEP50. The amplified genes were sublconed into pENTR/D/TEV (Life Technologies) and subsequently transferred by Gateway™ attL×attR recombination to pDEST8 baculvirus expression vector (Life Technologies).
# Protein Expression. Recombinant baculovirus and Baculovirus-Infected Insect Cells (BIIC) were generated according to Bac-to-Bac kit instructions (Life Technologies) and Wasilko, 2006, respectively. Protein over-expression was accomplished by infecting exponentially growing Spodoptera frugiperda (SF9) cell culture at 1.2×10^6cell/ml with a 5000 fold dilution of BIIC stock. Infections were carried out at 27° C. for 72 hours, harvested by centrifugation, and stored at −80° C. for purification.
# Protein Purification. […] Flag-PRMT5/6His-MeP50 was eluted with 300 mM Imidazole in the same buffer. The purity of recovered protein was 87%. Reference: Wasilko, D. J. and S. E. Lee: “TIPS: titerless infected-cells preservation and scale-up” Bioprocess J., 5 (2006), pp. 29-32.
# General Procedure for PRMT5/MEP50 Enzyme Assays on Peptide Substrates. The assays were all performed in a buffer consisting of 20 mM Bicine (pH=7.6), 1 mM TCEP, 0.005% BSG, and 0.002% Tween20, prepared on the day of use. Compounds in 100% DMSO (1 ul) were spotted into a polypropylene 384-well V-bottom plates (Greiner) using a Platemate Plus outfitted with a 384-channel head (Thermo Scientific). DMSO (1 ul) was added to Columns 11, 12, 23, 24, rows A-H for the maximum signal control and 1 ul of SAH, a known product and inhibitor of PRMT5/MEP50, was added to columns 11, 12, 23, 24, rows I-P for the minimum signal control. A cocktail (40 ul) containing the PRMT5/MEP50 enzyme and the peptide was added by Multidrop Combi (Thermo-Fisher). The compounds were allowed to incubate with PRMT5/MEP50 for 30 min at 25 degrees Celsius, then a cocktail (10 ul) containing ^3H-SAM was added to initiate the reaction (final volume=51 ul). The final concentrations of the components were as follows: PRMT5/MEP50 was 4 nM, ^3H-SAM was 75 nM, peptide was 40 nM, SAH in the minimum signal control wells was 100 uM, and the DMSO concentration was […]. The assays were stopped by the addition of non-radioactive SAM (10 ul) to a final concentration of 600 uM, which dilutes the ^3H-SAM to a level where its incorporation into the peptide substrate is no longer detectable. 50 ul of the reaction in the 384-well polypropylene plate was then transferred to a 384-well Flashplate and the biotinylated peptides were allowed to bind to the streptavidin surface for at least 1 hour before being washed three times with 0.1% Tween20 in a Biotek ELx405 plate washer. […]
# T1 sequence (O14744 with tags, fused parts or gaps): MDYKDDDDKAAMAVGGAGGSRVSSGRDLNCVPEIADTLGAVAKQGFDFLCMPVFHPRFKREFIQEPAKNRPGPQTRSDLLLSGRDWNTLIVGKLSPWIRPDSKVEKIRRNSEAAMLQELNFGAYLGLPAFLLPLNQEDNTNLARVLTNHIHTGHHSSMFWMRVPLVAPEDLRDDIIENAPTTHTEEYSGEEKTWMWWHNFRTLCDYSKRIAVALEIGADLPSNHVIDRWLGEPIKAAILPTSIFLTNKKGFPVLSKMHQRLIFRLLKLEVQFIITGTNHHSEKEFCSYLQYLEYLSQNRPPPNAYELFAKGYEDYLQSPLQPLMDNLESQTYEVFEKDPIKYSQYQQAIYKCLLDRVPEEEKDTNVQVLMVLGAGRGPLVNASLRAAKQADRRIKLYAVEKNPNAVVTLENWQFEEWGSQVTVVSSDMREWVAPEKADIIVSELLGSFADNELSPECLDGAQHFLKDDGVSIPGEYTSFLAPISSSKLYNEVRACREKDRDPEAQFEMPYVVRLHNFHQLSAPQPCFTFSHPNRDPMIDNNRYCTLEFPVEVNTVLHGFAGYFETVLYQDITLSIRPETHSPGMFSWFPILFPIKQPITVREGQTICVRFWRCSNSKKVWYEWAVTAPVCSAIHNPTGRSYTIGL
# T1 sequence (Q9BQA1 with tags, fused parts or gaps partner): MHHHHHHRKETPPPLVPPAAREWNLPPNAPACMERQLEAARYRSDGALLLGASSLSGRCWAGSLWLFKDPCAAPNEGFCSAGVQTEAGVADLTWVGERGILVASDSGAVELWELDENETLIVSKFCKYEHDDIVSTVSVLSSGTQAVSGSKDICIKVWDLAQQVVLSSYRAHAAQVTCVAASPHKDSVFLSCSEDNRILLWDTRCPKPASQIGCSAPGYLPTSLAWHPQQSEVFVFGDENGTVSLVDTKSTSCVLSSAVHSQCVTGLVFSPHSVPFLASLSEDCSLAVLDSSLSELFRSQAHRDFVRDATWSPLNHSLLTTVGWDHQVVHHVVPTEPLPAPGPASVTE
row,SMILES,IC50 [nM]
1,OC(COc1cccc(-c2cc(Cl)cc(C(F)(F)F)c2)c1)CN1CCc2ccccc2C1 (centres unmarked) [Compound 128],1000 to 10000
2,OC(COc1cccc(-c2ccc(C(F)(F)F)cc2)c1)CN1CCc2ccccc2C1 (centres unmarked) [Compound 133],1000 to 10000
3,OC(COc1cccc(-c2cncnc2)c1)CN1CCc2ccccc2C1 (centres unmarked) [Compound 140],1000 to 10000
4,COc1cccc2c1CCN(CC(O)COc1cccc(-c3ccc4ncn(C)c4c3)c1)C2 (centres unmarked) [Compound 142],1000 to 10000
5,CCOC(=O)CC1c2ccccc2CCN1CC(O)COc1cccc(-c2ccc3ncn(C)c3c2)c1 (centres unmarked) [Compound 144],1000 to 10000
6,COc1ncc(-c2cccc(OCC(O)CN3CCc4ccccc4C3)c2)cn1 (centres unmarked) [Compound 153],1000 to 10000
7,OC(COc1cccc(-c2cnccn2)c1)CN1CCc2ccccc2C1 (centres unmarked) [Compound 155],1000 to 10000
8,O=C(Nc1cccc(OCC(O)CN2CCc3ccccc3C2)c1)c1cnco1 (centres unmarked) [Compound 158],1000 to 10000
9,O=C(Nc1cccc(OCC(O)CN2CCc3ccccc3C2)c1)c1cocn1 (centres unmarked) [Compound 159],1000 to 10000
10,Cn1nccc1C(=O)Nc1cccc(OCC(O)CN2CCc3ccccc3C2)c1 (centres unmarked) [Compound 160],1000 to 10000
11,O=C(Nc1cccc(OCC(O)CN2CCc3ccccc3C2)c1)c1cncnc1 (centres unmarked) [Compound 161],1000 to 10000
12,Cn1ccc(C(=O)Nc2cccc(OCC(O)CN3CCc4ccccc4C3)c2)n1 (centres unmarked) [Compound 162],1000 to 10000
13,O=C(Nc1cccc(OCC(O)CN2CCc3ccccc3C2)c1)c1cccnn1 (centres unmarked) [Compound 164],1000 to 10000
14,OC(COc1cccc(-c2ccc3cnoc3c2)c1)CN1CCc2ccccc2C1 (centres unmarked) [Compound 166],1000 to 10000
15,CC(=O)Nc1cccc(-c2cccc(OCC(O)CN3CCc4ccccc4C3)c2)c1 (centres unmarked) [Compound 169],101 to 1000
16,OC(COc1cccc(-c2csc3ccccc23)c1)CN1CCc2ccccc2C1 (centres unmarked) [Compound 170],101 to 1000
17,NC(=O)c1cccc(-c2cccc(OCC(O)CN3CCc4ccccc4C3)c2)c1 (centres unmarked) [Compound 171],101 to 1000
18,N#Cc1cccc(-c2cccc(OCC(O)CN3CCc4ccccc4C3)c2)c1 (centres unmarked) [Compound 172],101 to 1000
19,OC(COC1CCN(c2ccccc2)C1)CN1CCc2ccccc2C1 (centres unmarked) [Compound 175],1000 to 10000
20,COc1ccc2c(c1)CN(CC(O)COc1cccc(-c3ccc4ncn(C)c4c3)c1)CC2 (centres unmarked) [Compound 177],10000 to 40000
21,CCC1c2ccccc2CCN1CC(O)COc1cccc(-c2ccc3ncn(C)c3c2)c1 (centres unmarked) [Compound 179],101 to 1000

row,SMILES,IC50 [nM]
1,O=C(c1cncc(-c2cccc(OCC(O)CN3CCc4ccccc4C3)c2)c1)N1CCCC1 (centres unmarked) [Compound 181],1000 to 10000
2,CNC(=O)c1cncc(-c2cccc(OCC(O)CN3CCc4ccccc4C3)c2)c1 (centres unmarked) [Compound 182],1000 to 10000
3,Cn1cnc(C(=O)Nc2cccc(OCC(O)CN3CCc4ccccc4C3)c2)c1 (centres unmarked) [Compound 183],1000 to 10000
4,O=C(Nc1cccc(OCC(O)CN2CCc3ccccc3C2)c1)c1ccnnc1 (centres unmarked) [Compound 184],1000 to 10000
5,O=C(c1cccc(-c2cccc(OCC(O)CN3CCc4ccccc4C3)c2)c1)N1CCCC1 (centres unmarked) [Compound 185],101 to 1000
6,CNC(=O)c1cccc(-c2cccc(OCC(O)CN3CCc4ccccc4C3)c2)c1 (centres unmarked) [Compound 186],101 to 1000
7,Cc1cn(C)c2cc(-c3cccc(OCC(O)CN4CCc5ccccc5C4)c3)ccc12 (centres unmarked) [Compound 187],101 to 1000
8,OC(COc1cccc(-c2ccc3ncoc3c2)c1)CN1CCc2ccccc2C1 (centres unmarked) [Compound 188],101 to 1000
9,OC(COc1cccc(-c2ccncc2F)c1)CN1CCc2ccccc2C1 (centres unmarked) [Compound 190],1000 to 10000
10,Cn1cnc2cnc(-c3cccc(OCC(O)CN4CCc5ccccc5C4)c3)nc21 (centres unmarked) [Compound 191],101 to 1000
11,Cc1cccc2c1CN(CC(O)COc1cccc(-c3ccc4ncn(C)c4c3)c1)CC2 (centres unmarked) [Compound 192],1000 to 10000
12,OC(COc1cccc(N2CCc3[nH]nc(-c4ccccc4)c3C2)c1)CN1CCc2ccccc2C1 (centres unmarked) [Compound 194],1000 to 10000
13,Cn1cncc1C(=O)Nc1cccc(OCC(O)CN2CCc3ccccc3C2)c1 (centres unmarked) [Compound 195],1000 to 10000
14,CN(C(=O)c1cnco1)c1cccc(OCC(O)CN2CCc3ccccc3C2)c1 (centres unmarked) [Compound 196],1000 to 10000
15,CN(C(=O)c1cn(C)cn1)c1cccc(OCC(O)CN2CCc3ccccc3C2)c1 (centres unmarked) [Compound 197],1000 to 10000
16,CN(C(=O)c1cocn1)c1cccc(OCC(O)CN2CCc3ccccc3C2)c1 (centres unmarked) [Compound 198],10000 to 40000
17,OC(COc1cccc(-c2cc(OC(F)(F)F)ccc2Cl)c1)CN1CCc2ccccc2C1 (centres unmarked) [Compound 200],101 to 1000
18,CC(C)Oc1ccc(F)c(-c2cccc(OCC(O)CN3CCc4ccccc4C3)c2)c1 (centres unmarked) [Compound 201],101 to 1000
19,CN(C(=O)c1cncn1C)c1cccc(OCC(O)CN2CCc3ccccc3C2)c1 (centres unmarked) [Compound 203],1000 to 10000
20,CN(C(=O)c1cccnc1)c1cccc(OCC(O)CN2CCc3ccccc3C2)c1 (centres unmarked) [Compound 204],1000 to 10000

# Now from value to molecule:
row,IC50 [nM],SMILES
1,101 to 1000,CS(=O)(=O)Nc1ccc(-c2cccc(OCC(O)CN3CCc4ccccc4C3)c2)cc1 (centres unmarked) [Compound 129]
2,101 to 1000,CS(=O)(=O)c1cccc(-c2cccc(OCC(O)CN3CCc4ccccc4C3)c2)c1 (centres unmarked) [Compound 130]
3,101 to 1000,CS(=O)(=O)c1ccccc1-c1cccc(OCC(O)CN2CCc3ccccc3C2)c1 (centres unmarked) [Compound 131]
4,101 to 1000,OC(COc1cccc(-c2ccccc2C(F)(F)F)c1)CN1CCc2ccccc2C1 (centres unmarked) [Compound 132]
5,101 to 1000,"COc1ccc(Cl)cc1-c1cccc(OCC(O)CN2CCc3ccccc3C2)c1 (centres unmarked) [Compound 134, 1-((5′-chloro-2′-methoxy-[1,1′-biphenyl]-3-yl)oxy)-3-(3,4-dihydroisoquinolin-2(1H)-yl)propan-2-ol]"
6,101 to 1000,Cn1ncc2ccc(-c3cc(COCC(O)CN4CCc5ccccc5C4)on3)cc21 (centres unmarked) [Compound 136]
7,101 to 1000,CC(=O)c1ccc(-c2cccc(OCC(O)CN3CCc4ccccc4C3)c2)cc1 (centres unmarked) [Compound 137]
8,101 to 1000,Cc1ccc(F)c(-c2cccc(OCC(O)CN3CCc4ccccc4C3)c2)c1 (centres unmarked) [Compound 138]
9,101 to 1000,OC(COc1cccc(-c2cccnc2F)c1)CN1CCc2ccccc2C1 (centres unmarked) [Compound 139]
10,101 to 1000,Cn1ccc2ccc(-c3cccc(OCC(O)CN4CCc5ccccc5C4)c3)cc21 (centres unmarked) [Compound 147]
11,101 to 1000,O=C1NCc2ccc(-c3cccc(OCC(O)CN4CCc5ccccc5C4)c3)cc21 (centres unmarked) [Compound 148]
12,101 to 1000,CC(C)(C)OCc1cccc(-c2cccc(OCC(O)CN3CCc4ccccc4C3)c2)c1 (centres unmarked) [Compound 150]
13,101 to 1000,CN(C)c1ccc(-c2cccc(OCC(O)CN3CCc4ccccc4C3)c2)cc1 (centres unmarked) [Compound 151]
14,101 to 1000,NC(=O)c1ccc(-c2cccc(OCC(O)CN3CCc4ccccc4C3)c2)cc1 (centres unmarked) [Compound 152]
15,101 to 1000,OC(COc1cccc(-c2ccccc2F)c1)CN1CCc2ccccc2C1 (centres unmarked) [Compound 154]
16,101 to 1000,"O=C1COc2ccc(-c3cccc(OCC(O)CN4CCc5ccccc5C4)c3)cc2N1 (centres unmarked) [Compound 156, 6-(3-(3-(3,4-dihydroisoquinolin-2(1H)-yl)-2-hydroxypropoxy)phenyl)-2H-benzo[b][1,4]oxazin-3(4H)-one]"
17,101 to 1000,"OC(COc1cccc(-c2ccccc2Oc2ccccc2)c1)CN1CCc2ccccc2C1 (centres unmarked) [Compound 167, 1-(3,4-dihydroisoquinolin-2(1H)-yl)-3-((2′-phenoxy-[1,1′-biphenyl]-3-yl)oxy)propan-2-ol]"
18,101 to 1000,COc1ccc(-c2cccc(OCC(O)CN3CCc4ccccc4C3)c2)cc1Cl (centres unmarked) [Compound 168]

# — patent US20180298010A1, “PRMT5 INHIBITORS AND USES THEREOF” (Epizyme, Inc., priority 2012, published 2018)
